Source: patent US20090306133A1, “New Acetyl Coenzyme A Carboxylase (ACC) Inhibitors And Uses In Treatments Of Obesity And Diabetes Mellitus - 087” (ASTRAZENECA AB, priority 2007, published 2009)

Columns and labels:
[1] = target: Human recombinant Acetyl-CoA Carboxylase 2 (ACC2) (Homo sapiens, UniProt O00763); assay: Assay Y: ACC2 inhibition, inorganic phosphate (Malachite Green); format: biochemical; settings: Assay Y: room temperature, 3 hr, 15 min preincubation
Summary of the method: (§1)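 Enzyme preincubated with compound 15 min before substrate addition; reaction run 3 h, then phosphate detected with Malachite Green at 670 nm after 10 min at room temperature. Triplicate 10-point titrations; IC50 by non-linear four-parameter curve fitting.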

[2] = target: Human recombinant Acetyl-CoA Carboxylase 1 (ACC1) (Homo sapiens, UniProt Q13085); assay: Assay Y: ACC1 inhibition, inorganic phosphate (Malachite Green); format: biochemical; settings: Assay Y: room temperature, 3 hr, 15 min preincubation
Summary of the method: as §1

Chain of Human recombinant Acetyl-CoA Carboxylase 2 (ACC2) (O00763 whole entry): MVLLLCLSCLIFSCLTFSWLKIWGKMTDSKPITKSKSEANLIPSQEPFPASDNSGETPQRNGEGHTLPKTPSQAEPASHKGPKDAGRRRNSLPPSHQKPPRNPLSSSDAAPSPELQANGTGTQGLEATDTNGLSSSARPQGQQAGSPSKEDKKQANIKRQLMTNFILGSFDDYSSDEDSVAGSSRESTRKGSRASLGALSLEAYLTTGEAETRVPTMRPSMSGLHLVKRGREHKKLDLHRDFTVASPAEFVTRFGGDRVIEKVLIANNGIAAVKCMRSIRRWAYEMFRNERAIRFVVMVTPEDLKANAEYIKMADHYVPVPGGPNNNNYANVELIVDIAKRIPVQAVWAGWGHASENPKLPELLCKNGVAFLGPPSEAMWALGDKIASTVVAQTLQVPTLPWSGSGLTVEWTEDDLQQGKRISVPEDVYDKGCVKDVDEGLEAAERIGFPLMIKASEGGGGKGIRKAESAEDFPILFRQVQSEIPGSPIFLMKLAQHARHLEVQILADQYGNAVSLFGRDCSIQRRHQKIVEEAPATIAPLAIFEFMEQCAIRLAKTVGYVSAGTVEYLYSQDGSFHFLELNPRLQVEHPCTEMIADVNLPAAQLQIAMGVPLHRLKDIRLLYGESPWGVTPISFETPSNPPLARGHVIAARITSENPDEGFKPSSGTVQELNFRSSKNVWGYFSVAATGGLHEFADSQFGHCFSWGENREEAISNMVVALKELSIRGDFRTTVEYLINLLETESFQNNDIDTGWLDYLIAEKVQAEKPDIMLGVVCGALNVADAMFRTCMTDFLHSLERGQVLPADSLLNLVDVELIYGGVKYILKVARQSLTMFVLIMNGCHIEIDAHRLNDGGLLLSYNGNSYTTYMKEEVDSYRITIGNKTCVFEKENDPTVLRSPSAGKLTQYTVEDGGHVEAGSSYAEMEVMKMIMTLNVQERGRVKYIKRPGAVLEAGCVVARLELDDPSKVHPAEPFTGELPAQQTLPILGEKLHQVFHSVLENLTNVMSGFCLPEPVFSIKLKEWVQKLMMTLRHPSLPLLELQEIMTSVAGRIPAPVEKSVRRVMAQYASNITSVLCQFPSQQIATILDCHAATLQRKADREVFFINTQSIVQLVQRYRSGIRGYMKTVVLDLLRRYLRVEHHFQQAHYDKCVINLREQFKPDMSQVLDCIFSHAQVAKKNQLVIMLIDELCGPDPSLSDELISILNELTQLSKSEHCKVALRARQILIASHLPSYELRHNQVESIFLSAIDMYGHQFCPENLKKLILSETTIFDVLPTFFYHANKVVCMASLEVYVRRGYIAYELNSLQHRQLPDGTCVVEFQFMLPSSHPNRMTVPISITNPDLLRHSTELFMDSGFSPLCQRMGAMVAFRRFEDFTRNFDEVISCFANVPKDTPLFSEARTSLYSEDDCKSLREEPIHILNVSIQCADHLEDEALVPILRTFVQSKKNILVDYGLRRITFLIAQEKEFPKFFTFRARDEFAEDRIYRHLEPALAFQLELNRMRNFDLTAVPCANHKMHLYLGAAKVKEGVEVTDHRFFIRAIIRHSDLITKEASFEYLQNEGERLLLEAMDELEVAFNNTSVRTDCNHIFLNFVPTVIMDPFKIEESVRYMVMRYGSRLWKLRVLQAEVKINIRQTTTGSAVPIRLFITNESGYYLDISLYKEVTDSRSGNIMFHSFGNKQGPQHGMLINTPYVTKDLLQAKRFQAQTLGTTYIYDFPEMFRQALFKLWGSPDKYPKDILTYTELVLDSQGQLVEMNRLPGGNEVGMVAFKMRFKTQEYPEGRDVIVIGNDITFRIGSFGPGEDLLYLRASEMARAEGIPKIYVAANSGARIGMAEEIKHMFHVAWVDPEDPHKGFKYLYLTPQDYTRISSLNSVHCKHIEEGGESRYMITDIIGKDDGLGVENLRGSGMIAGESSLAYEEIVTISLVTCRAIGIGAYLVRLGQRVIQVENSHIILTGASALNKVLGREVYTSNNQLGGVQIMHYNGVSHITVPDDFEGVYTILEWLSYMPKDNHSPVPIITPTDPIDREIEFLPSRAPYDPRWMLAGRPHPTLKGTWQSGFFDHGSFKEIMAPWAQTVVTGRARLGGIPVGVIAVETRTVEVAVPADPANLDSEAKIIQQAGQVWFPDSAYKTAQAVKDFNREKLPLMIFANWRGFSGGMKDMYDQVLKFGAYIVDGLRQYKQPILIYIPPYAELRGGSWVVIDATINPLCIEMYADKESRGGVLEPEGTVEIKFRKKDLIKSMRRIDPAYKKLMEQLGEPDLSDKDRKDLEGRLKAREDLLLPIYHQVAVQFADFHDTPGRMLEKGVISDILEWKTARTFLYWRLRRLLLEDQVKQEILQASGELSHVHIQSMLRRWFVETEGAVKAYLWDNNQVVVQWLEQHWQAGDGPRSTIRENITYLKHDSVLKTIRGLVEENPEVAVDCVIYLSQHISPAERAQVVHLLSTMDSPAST

Which results are given for `CC(C)(C)OC(=O)NC[C@H]1CC[C@H](CNC(=O)c2ccnc(-c3ccc(F)c(F)c3)c2)CC1` [Example 53, tert-Butyl {[trans-4-({[2-(3,4-difluorophenyl)isonicotinoyl]amino}methyl)cyclohexyl]-methyl}carbamate]?
IC50 [1]: 9.08 µM; IC50 [2]: > 20 µM

For `CC(C)(C)OC(=O)NC[C@H]1CC[C@H](CNS(=O)(=O)c2cc(-c3ccccc3)nc3ccccc23)CC1` [Example 95, tert-Butyl {[trans-4-({[(2-phenylquinolin-4-yl)sulfonyl]amino}methyl)cyclohexyl]-methyl}carbamate], which IC50 [1] is on record?
Its IC50 is 0.98 µM.

And the IC50 [2]?
Its IC50 is 2.14 µM.

For `CC(C)(C)OC(=O)NC[C@H]1CC[C@H](CNC(=O)c2cc(-c3ccc(CNS(C)(=O)=O)cc3)nc3ccccc23)CC1` [Example 106, tert-Butyl ({trans-4-[({[2-(4-{[(methylsulfonyl)amino]methyl}phenyl)quinolin-4-yl]carbonyl}amino)methyl]cyclohexyl}methyl)carbamate], which IC50 [1] is on record?
The IC50 was 0.07 µM.

What about the IC50 [2] of the same molecule?
The IC50 was 0.43 µM.

Which results are given for `CN1CCN(c2ccc(-c3cc(C(=O)NC[C@H]4CC[C@H](CNC(=O)OCCF)CC4)c4ccccc4n3)cn2)CC1` [Example 118, 2-Fluoroethyl[(trans-4-{[({2-[6-(4-methylpiperazin-1-yl)pyridin-3-yl]quinolin-4-yl}carbonyl)amino]methyl}cyclohexyl)methyl]carbamate]?
IC50 [1]: 0.65 µM; IC50 [2]: 1.64 µM

What does the source list for `COc1cccc(-c2cc(C(=O)NC[C@H]3CC[C@H](CNC(=O)OC(C)(C)C)CC3)c3ccccc3n2)c1` [Example 22, tert-Butyl ({trans-4-[({[2-(3-methoxyphenyl)quinolin-4-yl]carbonyl}amino)-methyl]cyclohexyl}methyl)carbamate]?
IC50 [1]: 0.31 µM; IC50 [2]: 1.01 µM

How did the IC50 [1] turn out when `CCOC(=O)NC[C@H]1CC[C@H](CNC(=O)c2cc(-c3ccc(Cl)cc3)nc3ccccc23)CC1` [Example 32, Ethyl ({trans-4-[({[2-(4-chlorophenyl)quinolin-4-yl]carbonyl}amino)methyl]cyclo-hexyl}methyl)carbamate] was run?
Its IC50 is 1.73 µM.

And the IC50 [2]?
The IC50 was > 20 µM.

`CCOC(=O)NC[C@H]1CC[C@H](CNC(=O)c2cc(-c3ccc(SC)cc3)nc3ccccc23)CC1` [Example 29, Ethyl [(trans-4-{[({2-[4-(methylthio)phenyl]quinolin-4-yl}carbonyl)amino]methyl}-cyclohexyl)methyl]carbamate] was tested. Which IC50 [1] did it give?
Its IC50 is 1.26 µM.

And the IC50 [2]?
The IC50 was 4.04 µM.

What does the source list for `CC(C)(C)OC(=O)NC[C@H]1CC[C@H](CNS(=O)(=O)c2ccsc2)CC1` [Example 74, tert-Butyl [(trans-4-{[(3-thienylsulfonyl)amino]methyl}cyclohexyl)methyl]-carbamate]?
IC50 [1]: 9.49 µM; IC50 [2]: > 20 µM

Which results are given for `CCOC(=O)NC[C@H]1CC[C@H](CNC(=O)c2cc(-c3cccc(C(N)=O)c3)nc3ccccc23)CC1` [Example 19, Ethyl ({trans-4-[({[2-(3-carbamoylphenyl)quinolin-4-yl]carbonyl}amino)methyl]-cyclohexyl}methyl)carbamate]?
IC50 [1]: 0.78 µM; IC50 [2]: 1.21 µM

For `CCOC(=O)CN(C[C@H]1CC[C@H](CNC(=O)OC(C)(C)C)CC1)S(=O)(=O)c1ccc2ccccc2c1` [Example 81, Ethyl N-[(trans-4-{[(tert-butoxycarbonyl)amino]methyl}cyclohexyl)methyl]-N-(2-naphthylsulfonyl)glycinate], which IC50 [1] is on record?
The IC50 was 3.03 µM.

What about the IC50 [2] of the same molecule?
The IC50 was > 20 µM.

With `CNS(=O)(=O)c1ccc(-c2cc(C(=O)NC[C@H]3CC[C@H](CNC(=O)O[C@H]4CCOC4)CC3)c3ccccc3n2)cc1` [Example 137, (3S)-Tetrahydrofuran-3-yl{[trans-4-({[(2-{4-[(methylamino)sulfonyl]phenyl}quinolin-4-yl)carbonyl]amino}methyl)cyclohexyl]methyl}-carbamate] as the molecule, how does the IC50 [1] read?
The IC50 was 0.68 µM.

What about the IC50 [2] of the same molecule?
The IC50 was 3.41 µM.

With `CC(C)(C)OC(=O)NC[C@H]1CC[C@H](CNC(=O)c2cc(-c3cccc(C(N)=O)c3)nc3ccccc23)CC1` [Example 8, tert-Butyl ({trans-4-[({[2-(3-carbamoylphenyl)quinolin-4-yl]carbonyl}amino)methyl]-cyclohexyl}methyl)carbamate] as the molecule, how does the IC50 [1] read?
Its IC50 is 0.08 µM.

What about the IC50 [2] of the same molecule?
Its IC50 is 0.31 µM.

With `CC(C)(C)OC(=O)NC[C@H]1CC[C@H](CN(CC2CCOCC2)S(=O)(=O)c2ccc3ccccc3c2)CC1` [Example 82, tert-Butyl [(trans-4-{[(2-naphthylsulfonyl)(tetrahydro-2H-pyran-4-ylmethyl)amino]-methyl}cyclohexyl)methyl]carbamate] as the molecule, how does the IC50 [1] read?
The IC50 was 3.17 µM.

And the IC50 [2]?
The IC50 was > 20 µM.

How did the IC50 [1] turn out when `CCCN(C[C@H]1CC[C@H](CNC(=O)OC(C)(C)C)CC1)S(=O)(=O)c1ccc2ccccc2c1` [Example 87, tert-Butyl [(trans-4-{[(2-naphthylsulfonyl)(propyl)amino]methyl}cyclohexyl)methyl]-carbamate] was run?
The IC50 was 8.71 µM.

What about the IC50 [2] of the same molecule?
Its IC50 is > 20 µM.

For `CN(C)S(=O)(=O)c1ccc(-c2cc(C(=O)NC[C@H]3CC[C@H](CNC(=O)O[C@H]4CCOC4)CC3)c3ccccc3n2)cc1` [Example 141, (3S)-Tetrahydrofuran-3-yl{[trans-4-({[(2-{4-[(dimethylamino)sulfonyl]phenyl}quinolin-4-yl)carbonyl]amino}-methyl)cyclohexyl]-methyl}carbamate], which IC50 [1] is on record?
Its IC50 is 0.92 µM.

And the IC50 [2]?
The IC50 was 3.9 µM.

Which results are given for `Cc1nc(C)c(-c2cc(C(=O)NC[C@H]3CC[C@H](CNC(=O)OC(C)(C)C)CC3)c3ccccc3n2)s1` [Example 25, tert-Butyl ({trans-4-[({[2-(2,4-dimethyl-1,3-thiazol-5-yl)quinolin-4-yl]carbonyl}amino)-methyl]cyclohexyl}methyl)carbamate]?
IC50 [1]: 0.14 µM; IC50 [2]: 1.68 µM

What does the source list for `CC(=O)NCc1ccc(-c2cc(C(=O)NC[C@H]3CC[C@H](CNC(=O)OC(C)(C)C)CC3)c3ccccc3n2)cc1` [Example 103, tert-Butyl [(trans-4-{[({2-[4-(acetamidomethyl)phenyl]quinolin-4-yl}carbonyl)-amino]methyl}cyclohexyl)methyl]carbamate]?
IC50 [1]: 0.04 µM; IC50 [2]: 0.2 µM

Which results are given for `CC(=O)Nc1ccc(S(=O)(=O)NC[C@H]2CC[C@H](CNC(=O)OC(C)(C)C)CC2)cc1` [Example 73, tert-Butyl {[trans-4-({[(4-acetamidophenyl)sulfonyl]amino}methyl)cyclohexyl]-methyl}carbamate]?
IC50 [1]: 5.03 µM; IC50 [2]: > 20 µM

How did the IC50 [1] turn out when `CNS(=O)(=O)c1ccc(-c2cc(C(=O)NC[C@H]3CC[C@H](CNC(=O)OC(C)(C)C)CC3)c3ccccc3n2)cc1` [Example 134, tert-Butyl {[trans-4-({[(2-{4-[(methylamino)sulfonyl]-phenyl}quinolin-4-yl)carbonyl]amino}methyl)cyclohexyl]methyl}-carbamate] was run?
Its IC50 is 0.1 µM.

And the IC50 [2]?
Its IC50 is 0.53 µM.

Which results are given for `COCCOC(=O)NC[C@H]1CC[C@H](CNC(=O)c2cc(-c3ccncc3)nc3ccccc23)CC1` [Example 59, 2-Methoxyethyl {[trans-4-({[(2-pyridin-4-ylquinolin-4-yl)carbonyl]amino}-methyl)cyclohexyl]methyl}carbamate]?
IC50 [1]: 4.67 µM; IC50 [2]: > 20 µM

How did the IC50 [1] turn out when `CC(C)(C)OC(=O)NC[C@H]1CC[C@H](CNC(=O)c2cccc3ccccc23)CC1` [Example 96, tert-Butyl ({trans-4-[(1-naphthoylamino)methyl]cyclohexyl}methyl)carbamate] was run?
Its IC50 is 3.64 µM.

And the IC50 [2]?
The IC50 was > 20 µM.

How did the IC50 [1] turn out when `CC(C)(C)OC(=O)NC[C@H]1CC[C@H](CNC(=O)c2cc(-c3cncnc3)nc3ccccc23)CC1` [Example 33, tert-Butyl {[trans-4-({[(2-pyrimidin-5-ylquinolin-4-yl)carbonyl]amino}methyl)cyclo-hexyl]methyl}carbamate] was run?
The IC50 was 1.14 µM.

And the IC50 [2]?
The IC50 was 3.51 µM.

Which results are given for `CC(C)(C)OC(=O)NC[C@H]1CC[C@H](CNS(=O)(=O)c2ccc3ncsc3c2)CC1` [Example 78, tert-Butyl [(trans-4-{[(1,3-benzothiazol-6-ylsulfonyl)amino]methyl}cyclohexyl)-methyl]carbamate]?
IC50 [1]: 3.14 µM; IC50 [2]: 6.55 µM

Which IC50 [1] does the source give for `CC(C)(C)OC(=O)NC[C@H]1CC[C@H](CNC(=O)c2cc(-c3ccc(Cl)cc3)nc3ccccc23)CC1` [Example 21, tert-Butyl ({trans-4-[({[2-(4-chlorophenyl)quinolin-4-yl]carbonyl}amino)methyl]cyclo-hexyl}methyl)carbamate] here?
The IC50 was 0.97 µM.

And the IC50 [2]?
The IC50 was 1.49 µM.

How did the IC50 [1] turn out when `CC(C)(C)OC(=O)NC[C@H]1CC[C@H](CNS(=O)(=O)c2cccc3cccnc23)CC1` [Example 66, tert-Butyl [(trans-4-{[(quinolin-8-ylsulfonyl)amino]methyl}cyclohexyl)methyl]-carbamate] was run?
The IC50 was 1.39 µM.

What about the IC50 [2] of the same molecule?
Its IC50 is 6.79 µM.

What does the source list for `CN(C)S(=O)(=O)c1ccc(-c2cc(C(=O)NC[C@H]3CC[C@H](CNC(=O)OC4CCOCC4)CC3)c3ccccc3n2)cc1` [Example 140, Tetrahydro-2H-pyran-4-yl{[trans-4-({[(2-{4-[(dimethylamino)sulfonyl]phenyl}quinolin-4-yl)carbonyl]amino}-methyl)cyclohexyl]-methyl}carbamate]?
IC50 [1]: 0.96 µM; IC50 [2]: 3.31 µM

`CC(C)(C)OC(=O)NC[C@H]1CC[C@H](CNC(=O)c2cc(-c3cccc(C(=O)O)c3)nc3ccccc23)CC1` [Example 108, 3-(4-{[(trans-4-{[(tert-Butoxycarbonyl)amino]methyl}cyclohexyl)methyl]-carbamoyl}quinolin-2-yl)benzoic Acid] was tested. Which IC50 [1] did it give?
Its IC50 is 0.45 µM.

What about the IC50 [2] of the same molecule?
The IC50 was 7.87 µM.

What does the source list for `CC(C)(C)OC(=O)NC[C@H]1CC[C@H](CNC(=O)c2cc(N3CCC(O)CC3)nc3ccccc23)CC1` [Example 187, tert-Butyl({trans-4-[({[2-(4-hydroxypiperidin-1-yl)quinolin-4-yl]carbonyl}amino)-methyl]cyclohexyl}-methyl)carbamate]?
IC50 [1]: 0.56 µM; IC50 [2]: 8.48 µM

`CC(C)(C)OC(=O)NC[C@H]1CC[C@H](CNC(=O)c2cc(N3CCN(CCO)CC3)nc3ccccc23)CC1` [Example 185, tert-Butyl [(trans-4-{[({2-[4-(2-hydroxyethyl)piperazin-1-yl]quinolin-4-yl}carbonyl)amino]methyl}cyclohexyl)methyl]carbamate] was tested. Which IC50 [1] did it give?
The IC50 was 1.12 µM.

What about the IC50 [2] of the same molecule?
Its IC50 is > 20 µM.
